Assay results reported in US20030009213A1, “Stent having cover with drug delivery capability” (priority 2000, published 2003).

Assay: Release of Taxol from a coated ePTFE stent cover after implantation
Type: in vivo
Details: first week after implantation; ePTFE stent cover with outer layer of Taxol, gelatin and poly(e-caprolactone) mixture (20:20:60)
From the text: A polymeric stent cover, made of ePTFE, is provided with another layer of Taxol, gelatin, and poly(e-caprolactone) mixture (20:20:60) on the outside. 20% of the Taxol is released to the artery wall during the first week after implantation.

CC(=O)O[C@H]1C(=O)[C@@]2(C)[C@H]([C@H](OC(=O)c3ccccc3)[C@]3(O)C[C@H](OC(=O)[C@H](O)[C@@H](NC(=O)c4ccccc4)c4ccccc4)C(C)=C1C3(C)C)[C@]1(OC(C)=O)CO[C@@H]1C[C@@H]2O [Taxol]
Taxol released to the artery wall: 20%
